Reference: patent US11470846B2, “Herbicidal pyridino-/pyrimidino-thiazoles” (SYNGENTA PARTICIPATIONS AG, priority 2014, dated 2022)

How the values were obtained:
Type in all cases: in vivo
[1] = tested on: Avena fatua (AVEFA); assay: Pre-emergence herbicidal activity; details: pre-emergence application, 1000 g/Ha, evaluated after 13 days, scale 0-5
Description: (§1) B1 Pre-Emergence Herbicidal Activity
(§2) Seeds of a variety of test species were sown in standard soil in pots: Triticum aestivium (TRZAW), Oryza sativa (ORYSA), Avena fatua (AVEFA), Alopecurus myosuroides (ALOMY), Echinochloa crus-galli (ECHCG), Lolium perenne (LOLPE), Zea Mays (ZEAMX), Abutilon theophrasti (ABUTH), Amaranthus retroflexus (AMARE) and Setaria faberi (SETFA). After cultivation for one day (pre-emergence) under controlled conditions in a glasshouse (at 24/16° C., day/night; 14 hours light; 65% humidity), the plants were sprayed with an aqueous spray solution derived from the formulation of the technical active ingredient in acetone/water (50:50) solution containing 0.5% Tween 20 (polyoxyethelyene sorbitan monolaurate, CAS RN 9005-64-5). The test plants were then grown in a glasshouse under controlled conditions (at 24/16° C., day/night; 14 hours light; 65% humidity) and watered twice daily. After 13 days, the test was evaluated (5=total damage to plant; 0=no damage to plant).

[2] = tested on: Oryza sativa (ORYSA); assay: Pre-emergence herbicidal activity; details: pre-emergence application, 1000 g/Ha, evaluated after 13 days, scale 0-5
Description: as §1, §2

[3] = tested on: Echinochloa crus-galli (ECHCG); assay: Pre-emergence herbicidal activity; details: pre-emergence application, 1000 g/Ha, evaluated after 13 days, scale 0-5; Table 5
Description: as §1, §2

[4] = tested on: Alopecurus myosuroides (ALOMY); assay: Pre-emergence herbicidal activity; details: pre-emergence application, 1000 g/Ha, evaluated after 13 days, scale 0-5
Description: as §1, §2

[5] = tested on: Lolium perenne (LOLPE); assay: Pre-emergence herbicidal activity; details: pre-emergence application, 1000 g/Ha, evaluated after 13 days, scale 0-5; Table 5
Description: as §1, §2

[6] = tested on: Triticum aestivium (TRZAW); assay: Pre-emergence herbicidal activity; details: pre-emergence application, 1000 g/Ha, evaluated after 13 days, scale 0-5
Description: as §1, §2

[7] = tested on: Avena fatua (AVEFA); assay: Post-emergence herbicidal activity; details: post-emergence application, 1000 g/Ha, evaluated after 13 days, scale 0-5
Description: (§3) B2 Post-Emergence Herbicidal Activity
(§4) Seeds of a variety of test species were sown in standard soil in pots: Triticum aestivium (TRZAW), Oryza sativa (ORYSA), Avena fatua (AVEFA), Alopecurus myosuroides (ALOMY), Echinochloa crus-galli (ECHCG), Lolium perenne (LOLPE), Zea Mays (ZEAMX), Abutilon theophrasti (ABUTH), Amaranthus retroflexus (AMARE) and Setaria faberi (SETFA). After 8 days cultivation (post-emergence) under controlled conditions in a glasshouse (at 24/16° C., day/night; 14 hours light; 65% humidity), the plants were sprayed with an aqueous spray solution derived from the formulation of the technical active ingredient in acetone/water (50:50) solution containing 0.5% Tween 20 (polyoxyethelyene sorbitan monolaurate, CAS RN 9005-64-5). The test plants were then grown in a glasshouse under controlled conditions (at 24/16° C., day/night; 14 hours light; 65% humidity) and watered twice daily. After 13 days, the test was evaluated (5=total damage to plant; 0=no damage to plant).

[8] = tested on: Oryza sativa (ORYSA); assay: Post-emergence herbicidal activity; details: post-emergence application, 1000 g/Ha, evaluated after 13 days, scale 0-5
Description: as §3, §4

[9] = tested on: Echinochloa crus-galli (ECHCG); assay: Post-emergence herbicidal activity; details: post-emergence application, 1000 g/Ha, evaluated after 13 days, scale 0-5; Table 7
Description: as §3, §4

[10] = tested on: Alopecurus myosuroides (ALOMY); assay: Post-emergence herbicidal activity; details: post-emergence application, 1000 g/Ha, evaluated after 13 days, scale 0-5
Description: as §3, §4

[11] = tested on: Lolium perenne (LOLPE); assay: Post-emergence herbicidal activity; details: post-emergence application, 1000 g/Ha, evaluated after 13 days, scale 0-5; Table 7
Description: as §3, §4

[12] = tested on: Triticum aestivium (TRZAW); assay: Post-emergence herbicidal activity; details: post-emergence application, 1000 g/Ha, evaluated after 13 days, scale 0-5
Description: as §3, §4

SMILES | Control of weed species, AVEFA (damage score) [1] | Control of weed species, ORYSA (damage score) [2] | Control of weed species, ECHCG (damage score) [3] | Control of weed species, ALOMY (damage score) [4] | Control of weed species, LOLPE (damage score) [5] | Control of weed species, TRZAW (damage score) [6] | Control of weed species, AVEFA (damage score) [7] | Control of weed species, ORYSA (damage score) [8] | Control of weed species, ECHCG (damage score) [9] | Control of weed species, ALOMY (damage score) [10] | Control of weed species, LOLPE (damage score) [11] | Control of weed species, TRZAW (damage score) [12]
Cc1nc(-c2cncc(N(C)C)c2)sc1N(C)C(=O)OC(C)(C)C [Compound A13] | 0 | 1 | 1 | 0 | 0 | 0 | 0 | 1 | 2 | 1 | 0 | 2
Cc1nc(-c2cc(F)c[n+]([O-])c2)sc1N(C)C(=O)OC(C)(C)C [Compound A62, tert-butyl N-[2-(5-fluoro-3-pyridyl N-oxide)-4-methyl-thiazol-5-yl]-N-methyl-carbamate] | 2 | 1 | 3 | 2 | 2 | 1 | 4 | 0 | 4 | 1 | 4 | 1
Cc1nc(-c2cncc(Cl)c2)sc1N(C)C(=O)OC(C)(C)C [Compound A4] | 4 | 0 | 4 | 1 | 2 | 0 | 5 | 1 | 4 | 0 | 2 | 1
Cc1nc(-c2cncc(C=O)c2)sc1N(C)C(=O)OC(C)(C)C [Compound A5] | 0 | 0 | 0 | 0 | 0 | 0 | 0 | 0 | 0 | 0 | 0 | 0
Cc1nc(-c2cncc(OCc3ccccc3)c2)sc1N(C)C(=O)OC(C)(C)C [Compound A14] | 0 | 0 | 0 | 0 | 1 | 1 | 0 | 0 | 1 | 0 | 0 | 0
CN(C(=O)OC(C)(C)C)c1sc(-c2cncc(Cl)c2)nc1C(F)(F)F [Compound A27] | 2 | 0 | 2 | 0 | 2 | 0 | 4 | 1 | 5 | 1 | 3 | 2
